{"source": "patent US20250222011A1", "about": "“DRUG TARGET FOR INHIBITING TUMOR, USE, AND ORAL DRUG” (CHI BIOTECH CO., LTD., priority 2024, published 2025)", "key": {"[1]": {"biological_target": "T1, EIF2S1 (Homo sapiens, UniProt P05198)", "T1 construct": "endogenous in cells; host or cells: H1299", "T1 sequence (P05198 whole entry)": "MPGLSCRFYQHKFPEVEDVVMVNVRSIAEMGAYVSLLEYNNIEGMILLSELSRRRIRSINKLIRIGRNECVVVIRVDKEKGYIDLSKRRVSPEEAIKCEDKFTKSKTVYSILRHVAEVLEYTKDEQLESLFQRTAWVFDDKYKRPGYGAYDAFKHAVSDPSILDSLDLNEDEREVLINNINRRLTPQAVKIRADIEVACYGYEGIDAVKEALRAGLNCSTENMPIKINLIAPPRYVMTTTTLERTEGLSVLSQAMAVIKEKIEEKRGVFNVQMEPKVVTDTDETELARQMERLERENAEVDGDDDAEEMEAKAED", "assay": "CESTA-WB (cellular thermal shift assay-Western blotting), H1299 cell lysate", "assay_type": "binding", "details": "ATCA 10 nM to 10 mM, 55° C. for 3 min, FIG. 1", "method": "(§1) CESTA-WB experiment: H1299 cells were plated and cultured in a 15 cm dish, and when a cell density reached about 90% to 100%, the medium was aspirated; the cells were washed twice with PBS, and 2 mL of Lysis Buffer (RB Buffer, 10% N-Dodecyl-β-D-maltoside, and 1× protease inhibitor) was added to each dish and placed flatly on ice to allow lysis for 30 min, and a cell lysate was collected and centrifuged at 17,000 g, 4° C. for 10 min; a resulting supernatant was quantified using a BCA kit. 45 μL of a whole protein was added in a PCR tube, ATCA was added to final concentrations of 10 mM, 1 mM, 100 μM, 10 μM, 1 μM, 100 nM, and 10 nM, respectively, and allowed to stand at 25° C. for 30 min to allow the ATCA to fully interact with the whole protein; while another two tubes without ATCA were taken as controls. The experimental group was treated at 55° C. for 3 min, while one tube in the control group was treated at 37° C. for 3 min, and the other tube was treated at 50° C. for 3 min; centrifugation was conducted at 17,000×g for 10 min at 4° C. to remove denatured proteins. The supernatant was transferred into a new PCR tube, and 5 μg of the supernatant was added into 5×SDS Loading Buffer to allow denaturation in a 100° C. water bath; the Western Blotting was conducted to quantify EEF2, EIF2S1, B-actin, and Vinculin proteins.\n(§2) Western Blotting experiment: the sample and molecular weight standard of pre-stained protein were loaded onto an SDS-PAGE gel (10 cmx 10 cm) to allow electrophoresis at 100 V for 40 min. The proteins in SDS-PAGE were transferred to nitrocellulose membrane at 100 V, 230 mA within 1 h. After transfer, the nitrocellulose membrane was washed with 25 mL of TBS for 5 min at room temperature. The nitrocellulose membrane was placed in 25 mL of blocking buffer (TBST, 5% skim milk) and incubated at room temperature for 1 h. The membrane was washed three times with 15 mL TBST, 5 min each. […]"}, "[2]": {"biological_target": "T2, Vinculin (Homo sapiens, UniProt P18206)", "T2 construct": "endogenous in cells; host or cells: H1299", "T2 sequence (P18206 1-1066 isoform P18206-2)": "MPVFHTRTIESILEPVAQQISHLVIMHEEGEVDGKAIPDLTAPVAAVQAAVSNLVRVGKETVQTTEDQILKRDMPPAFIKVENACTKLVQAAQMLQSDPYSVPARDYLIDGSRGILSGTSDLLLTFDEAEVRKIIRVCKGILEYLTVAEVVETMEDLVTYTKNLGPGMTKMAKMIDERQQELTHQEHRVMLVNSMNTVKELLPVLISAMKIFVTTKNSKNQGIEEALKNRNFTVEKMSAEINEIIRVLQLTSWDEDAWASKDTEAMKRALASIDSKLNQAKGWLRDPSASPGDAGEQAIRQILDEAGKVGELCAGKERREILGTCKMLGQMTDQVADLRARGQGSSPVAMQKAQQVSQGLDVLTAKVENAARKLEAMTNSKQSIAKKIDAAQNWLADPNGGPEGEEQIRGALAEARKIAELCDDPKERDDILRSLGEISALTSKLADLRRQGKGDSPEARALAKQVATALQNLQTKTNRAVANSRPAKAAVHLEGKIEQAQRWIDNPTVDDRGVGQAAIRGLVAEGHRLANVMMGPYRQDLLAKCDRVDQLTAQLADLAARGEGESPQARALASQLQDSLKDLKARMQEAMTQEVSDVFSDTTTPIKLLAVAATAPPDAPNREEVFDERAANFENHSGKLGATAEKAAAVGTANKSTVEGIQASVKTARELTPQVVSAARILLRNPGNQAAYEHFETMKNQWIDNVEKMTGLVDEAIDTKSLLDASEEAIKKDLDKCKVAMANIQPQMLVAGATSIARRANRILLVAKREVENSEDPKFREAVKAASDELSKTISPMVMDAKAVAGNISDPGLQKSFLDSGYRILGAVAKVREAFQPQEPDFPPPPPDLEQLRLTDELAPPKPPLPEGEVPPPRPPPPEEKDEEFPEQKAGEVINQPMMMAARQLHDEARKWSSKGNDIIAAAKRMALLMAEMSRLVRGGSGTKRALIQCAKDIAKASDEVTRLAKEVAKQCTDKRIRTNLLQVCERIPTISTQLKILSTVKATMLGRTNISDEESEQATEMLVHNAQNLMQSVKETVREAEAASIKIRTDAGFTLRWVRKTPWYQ", "assay": "CESTA-WB (cellular thermal shift assay-Western blotting), H1299 cell lysate", "assay_type": "binding", "details": "ATCA 10 nM to 10 mM, 55° C. for 3 min, FIG. 1", "method": "as §1, §2"}, "[3]": {"tested_on": "SOX2", "assay": "Western blotting of SOX2 expression after ATCA treatment", "assay_type": "cell-based", "details": "FIG. 4"}}, "data": [{"smiles": "O=C(O)C1=CC(=C(c2ccc(O)c(C(=O)O)c2)c2ccc(O)c(C(=O)O)c2)C=CC1=O", "note": "[ATCA, aurintricarboxylic acid]", "values": [{"measurement": "binding to target protein EIF2S1", "setting": "[1]", "value": "binds"}, {"measurement": "binding to non-target protein Vinculin", "setting": "[2]", "value": "did not bind"}, {"measurement": "SOX2 expression", "setting": "[3]", "value": "downregulation"}]}]}
